Our source for the inhibition and IC50 values is patent US6495604B1, “Cycloalkene derivatives, process for producing the same, and use” (Takeda Chemical Industries, Ltd., priority 1998, dated 2002).

SMILES strings stand for the structures.

The test system of assay [1] is blood nitric oxide concentration (NOx). Nature of the assay: Effect on increase in blood nitric oxide level (LPS-treated mice). The settings on record: Mus musculus; 30 mg/kg orally 1 hour before LPS 10 mg/kg i.p.; serum nitrite+nitrate 6 hours after LPS; vs control group; read-out: Inhibition % of NO in blood. In kind it is in vivo, BALB/c mice.
For assay [2], the system named is serum IL-6. In words: Effect on increase in blood cytokine level (LPS-treated mice): IL-6. Conditions: Mus musculus; 30 mg/kg orally 1 hour before LPS 10 mg/kg i.p.; serum 6 hours after LPS; vs control group. It is filed as in vivo, BALB/c mice. As to the method: (§1) As a result of a defense mechanism against an infection or an immune abnormality, various in vivo cytokines are produced. Accordingly, an experimental animal model was used to examine the effect of a test compound on the increase in the blood cytokine level.
(§2) Female BALB/c mice (6 weeks old) were purchased and acclimatized for 1 week and assigned to the groups in each of which 6 to 8 animals were included. In a treatment group, 30 mg/kg of a test compound suspended in a 0.5% aqueous solution of methyl cellulose was given orally. In a control group, the vehicle was given similarly. After 1 hour, LPS (10 mg/kg) was given intraperitoneally to each animal in the treatment and control groups, and the blood was taken 1 hour after the LPS administration and examined for the serum concentrations of TNF-α. IL-1α, IL-1β and IL-6 concentrations were determined using the serum from the blood taken 6 hours after the LPS administration. Each cytokine was determined using an assay kit manufactured by Amersham.

In assay [3] the test system is serum TNF-α. In words: Effect on increase in blood cytokine level (LPS-treated mice): TNF-α. In kind it is in vivo, BALB/c mice. Conditions: Mus musculus; 30 mg/kg orally 1 hour before LPS 10 mg/kg i.p.; serum 1 hour after LPS; vs control group. The procedure:
as §1, §2

Assay [4] has as its system serum IL-1β. In words: Effect on increase in blood cytokine level (LPS-treated mice): IL-1β. It is filed as in vivo, BALB/c mice. Conditions: Mus musculus; 30 mg/kg orally 1 hour before LPS 10 mg/kg i.p.; serum 6 hours after LPS; vs control group. The procedure:
as §1, §2

Assay [5] has as its system serum IL-1α. Nature of the assay: Effect on increase in blood cytokine level (LPS-treated mice): IL-1α. In kind it is in vivo, BALB/c mice. Conditions: Mus musculus; 30 mg/kg orally 1 hour before LPS 10 mg/kg i.p.; serum 6 hours after LPS; vs control group. The procedure: as §1, §2
Assay [6] has as its system NO production by RAW264.7 cell. Nature of the assay: NO production-inhibiting effect in RAW264.7 cells (nitrite ion by DAN fluorescence). It is filed as cell-based, mouse. Conditions: Mus musculus, RAW264.7, RAW264.7; LPS 5 ng/ml + interferon gamma 1 U/ml; nitrite ion in culture supernatant after overnight incubation. As to the method: Mouse macrophage cell line RAW264.7 was used as an iNOS-inducible cell and a test compound was examined for its % inhibition of NO production. The test compound was dissolved at 10 mM in N,N-dimethylformamide and diluted with an RPMI-1640 medium at the concentration of 0.1 mM. The concentration was further adjusted using the medium so that a final concentration ranging from 10 μM to 10 nM could be obtained by a 10-fold serial dilution and the test compound was added to a culture medium. On the day before the experiment, the cell was adjusted at 5×10^5/ml in an RPMI-1640 medium supplemented with 10% inactivated fetal calf serum and inoculated to a 96-well microplate at 1×10^5 cells/0.2 ml per well. After incubating at 37° C. under an atmosphere of 5% CO2/95% air overnight, the test compound adjusted as described above was added and then LPS and interferon gamma were added at the final concentrations of 5 ng/ml and 1 U/ml, respectively. After further incubating overnight, culture supernatants were examined for the concentration of nitrite ion (stable metabolite of NO) which was used as an index for the NO production. The nitrite ion concentration was determined by adding 25 μl of 20 μg/ml of 2,3-diaminonaphthalene (DAN) to 50 μl of the culture supernatant, followed by incubating at room temperature for 10 minutes, followed by adding 25 μl of 0.5 N NaOH, followed by determining a fluorescence at 450 nm (excitation wavelength: 365 nm). An IC50 represents the concentration of the test compound which inhibits 50% of the NO production.

The subject of assay [7] is IL-1α production, RAW264.7. In words: Cytokine production-inhibiting effect in RAW264.7: IL-1α. In kind it is cell-based. The settings on record: Mus musculus, LPS 1.0 μg/ml in the absence of interferon gamma. The procedure: Using mouse macrophage cell line RAW264.7, a test compound was examined for its % inhibition of a cytokine production. The test compound was dissolved at 10 mM in N,N-dimethylformamide and dilutedwith an RPMI-1640 medium at the concentration of 0.1 mM. The concentration was further adjusted using the medium so that a final concentration ranging from 10 μM to 10 nM could be obtained by a 10-fold serial dilution and the test compound was added to a culture medium. On the day before the experiment, the cell was adjusted at 5×10^5/ml in an RPMI-1640 medium supplemented with 10% inactivated fetal calf serum and inoculated to a 96-well microplate at 1×10^5 cells/0.2 ml per well. After incubating at 37° C. under an atmosphere of 5% CO2/95% air overnight, the test compound adjusted as described above was added and then LPS and interferon-gamma were added at the final concentrations of 5 ng/ml and 1 U/ml, respectively. After further incubating overnight, culture supernatants were examined for the concentrations of TNF-α and IL-6. IL-1α was determined using 1.0 μg/ml of LPS in the absence of interferon gamma under otherwise similar conditions. Each cytokine was determined using an assay kit manufactured by Amersham. An IC50 represents the concentration of the test compound which inhibits 50% of the cytokine production.

Turning to `CCOC(=O)C1=CCCCC1S(=O)(=O)Nc1ccc(Cl)cc1F` (stereo not shown) [Compound 1, ethyl 6-[N-(4-chloro-2-fluorophenyl)sulfamoyl]-1-cyclohexene-1-carboxylate], the inhibition at 30 mg/kg is 76% in assay [1]; 89% in assay [2]; 98% in assay [3]; 73% in assay [4]; 97% in assay [5]. Further, the results for the half-inhibitory concentration (IC50) in assay [6] and in assay [7] were 0.12 to 0.32 µM and 0.39 µM, respectively.
